Where two headings read alike, the source gives them in different places.
Columns and labels:
[1] = system: Hep-G2 human hepatoma cell line; test: cells; type: cell-based; conditions: for GI50: SRB assay, 48 h, Hep-G2
Method: (§1) All the newly synthesized compounds were screened for their in vitro anticancer activity against six cancer cell lines: SK-MEL-2, MCF-7, IMR-32, MG-63, HT-29 and Hep-G2 by SRB assay, using adriamycin as a standard drug. All the synthesized derivatives 4(a–n) were also tested for their cytotoxic effect on normal cell lines i.e., NIH/3T3 (murine embryonic fibroblast by the SRB assay method. The cell lines were grown in RPMI 1640 medium containing 10% fetal bovine serum and 2 mM L-glutamine. For the present screening experiments, cells were inoculated into 96 well microtiter plates in 90 µL at 5000 cells per well. After cell inoculation, the microtiter plates were incubated at 37 °C, 5% CO2, 95% air and 100% relative humidity for 24 h prior to addition of experimental drugs. Experimental drugs were solubilized in appropriate solvent to prepare stock of 10^−2 concentration. At the time of experiment four 10-fold serial dilutions were made using complete medium. Aliquots of 10 µL of these different drug dilutions were added to the appropriate micro-titer wells already containing 90 µL of medium, resulting in the required final drug concentrations. After compound addition, plates were incubated at standard conditions for 48 h. and assay was terminated by the addition of cold trichloroacetic acid (TCA). Cells were fixed in situ by the gentle addition of […] (final concentration, 10% TCA) and incubated for 60 min at 4 °C. The supernatant was discarded; the plates were washed five times with tap water and air dried.
(§2) Sulforhodamine B (SRB) solution (50 µL) at 0.4% (w/v) in 1% acetic acid was added to each of the wells, and plates were incubated for 20 min at room temperature. After staining, unbound dye was recovered and the residual dye was removed by washing five times with 1% acetic acid. The plates were air dried. Bound stain was subsequently eluted with 10 mM trizma base, and the absorbance was read on an ELISA plate reader at a wavelength of 540 nm with 690 nm reference wavelength. All the tests were repeated in at least three independent experiments at the concentrations of 10, 20, 40 and 80 µg/mL [57].

[2] = system: HT-29 human colon cancer cell line; test: cells; type: cell-based; conditions: for anticancer activity compared with standard drug adriamycin, HT-29: HT-29 (human colon cancer) cell line; for GI50: SRB assay, 48 h, HT-29
Method: as §1, §2

[3] = system: SK-MEL-2 human melanoma cancer cell line; test: cells; type: cell-based; conditions: SRB assay, 48 h, read-out: GI50 SKMEL-2
Method: as §1, §2

[4] = system: MG-63 human osteosarcoma cell line; test: cells; type: cell-based; conditions: SRB assay, 48 h
Method: as §1, §2

[5] = system: MCF-7 human breast cancer cell line; test: cells; type: cell-based; conditions: 48 h
Method: as §1, §2

[6] = system: NIH/3T3 normal murine embryonic fibroblast cell line; test: in vitro; type: cell-based; conditions: SRB assay
Method: as §1, §2

[7] = system: IMR-32 neuroblastoma cell line; test: cells; type: cell-based, human; conditions: SRB assay, 48 h
Method: as §1, §2

Swiss albino mice = test: In vivo acute oral toxicity study and gross behavioral studies (OECD Guideline no. 425); set-up: key to Additional Observation: Convulsions / Behavioral Observation: Motor Activity / Behavioral Observation: Stereotypy / Behavioral Observation: Tremors / Behavioral Observation: Catalepsy / Behavioral Observation: Sedation / Behavioral Observation: Hypnosis / Behavioral Observation: Muscle Spasm / Behavioral Observation: Analgesia / Behavioral Observation: Arching & Rolling / Additional Observation: Skin and Fur / Additional Observation: Eyes Lacrimation / Additional Observation: Salivation / Additional Observation: Diarrhea / Additional Observation: Respiration / Additional Observation: Straub Tail / Additional Observation: Pilo Erection: N. no; Y: Yes; conditions: for Additional Observation: Convulsions / Additional Observation: Diarrhea / Additional Observation: Eyes Lacrimation / Additional Observation: Pilo Erection / Additional Observation: Respiration / Additional Observation: Salivation / Additional Observation: Skin and Fur / Additional Observation: Straub Tail / Behavioral Observation: Analgesia / Behavioral Observation: Arching & Rolling / Behavioral Observation: Catalepsy / Behavioral Observation: Hypnosis / Behavioral Observation: Motor Activity / Behavioral Observation: Muscle Spasm / Behavioral Observation: Sedation / Behavioral Observation: Stereotypy / Behavioral Observation: Tremors / No. of Death / Toxicity: Swiss albino mice; for Additional Observation: Convulsions / Additional Observation: Diarrhea / Additional Observation: Eyes Lacrimation / Additional Observation: Pilo Erection / Additional Observation: Respiration / Additional Observation: Salivation / Additional Observation: Skin and Fur / Additional Observation: Straub Tail / Behavioral Observation: Analgesia / Behavioral Observation: Arching & Rolling / Behavioral Observation: Catalepsy / Behavioral Observation: Hypnosis / Behavioral Observation: Motor Activity / Behavioral Observation: Muscle Spasm / Behavioral Observation: Sedation / Behavioral Observation: Stereotypy / Behavioral Observation: Tremors: single oral dose; for No. of Death / Toxicity: single oral dose 100-2000 mg/kg; for lethal dose / mortality: mice, oral; for mortality: up to 2000 mg/kg
Method: The in vivo acute oral toxicity study for the newly synthesized scaffolds 4b and 4h was performed according to the OECD Guideline no. 425 [60] using Swiss albino mice (18–22 gm weight) quarantined at the animal house at Y.B. Chavan College of Pharmacy, Aurangabad IAEC approval number CPCSEA/IAEC/P’col-52/2015-16/115. Each group consisted of six mice (overnight fasted) and kept in a colony cage at 25 ± 2 °C with 55% relative humidity and 12 h of light and dark cycle. A specified dose of 100, 250, 500, 750, 1000, 1500 and 2000 mg/kg body weight of mice was administered orally as a single dose. The acute toxic symptoms and the behavioral changes produced by the test compounds were observed continuously for 4 h periods at 8th, 12th and 24th h. Onset of toxic symptoms and the gross behavioral changes were also recorded. These animals were maintained for further 10 days with observations made daily. In case the animal appeared moribund (dying) the animal was sacrificed in a humane way and it is considered to have died because of toxicity.

in vitro = type: cell-based; conditions: mouse, SRB assay, normal murine embryonic fibroblast cell line; for GI50: read-out: GI50 NIH/3T3
Method: as §1, §2

CCOP(=O)(OCC)C(N/N=C1\C(=O)Nc2ccccc21)c1cccs1 (centres unmarked) [4i, (Z)-Diethyl(2-(2-oxoindolin-3-ylidene)hydrazinyl)(thiophen-2-yl)methylphosphonate]
anticancer activity compared with standard drug Adriamycin, Hep-G2 ([1]; Hep-G2 (human hepatoma) cell line): equipotent | GI50 [1]: < 0.1 µM | anticancer activity compared with standard drug adriamycin, HT-29 [2]: equipotent | GI50 [2]: < 0.1 µM | GI50 [3]: 55.5 µM | GI50 [4]: < 0.1 µM | GI50 ([5]; SRB assay): > 100 µM | GI50 [6]: > 250 µM | GI50 [7]: > 100 µM

CCOc1cc(C(N/N=C2\C(=O)Nc3ccccc32)P(=O)(OCC)OCC)ccc1O (centres unmarked) [4h, (Z)-Diethyl(3-ethoxy-4-hydroxyphenyl)(2-(2-oxoindolin-3-ylidene)hydrazinyl)methylphosphonate]
GI50 [1]: 43.8 µM | GI50 [2]: 4.1 µM | GI50 [3]: 51 µM | GI50 [4]: < 0.1 µM | GI50 ([5]; SRB assay): 70.7 µM | GI50 [6]: > 250 µM | Additional Observation: Convulsions (Swiss albino mice): N | Additional Observation: Diarrhea (Swiss albino mice): N | Additional Observation: Eyes Lacrimation (Swiss albino mice): N | Additional Observation: Pilo Erection (Swiss albino mice): Y | Additional Observation: Respiration (Swiss albino mice): N | Additional Observation: Salivation (Swiss albino mice): N | Additional Observation: Skin and Fur (Swiss albino mice): N | Additional Observation: Straub Tail (Swiss albino mice): N | Behavioral Observation: Analgesia (Swiss albino mice): N | Behavioral Observation: Arching & Rolling (Swiss albino mice): N | Behavioral Observation: Catalepsy (Swiss albino mice): N | Behavioral Observation: Hypnosis (Swiss albino mice): N | Behavioral Observation: Motor Activity (Swiss albino mice): Y | Behavioral Observation: Muscle Spasm (Swiss albino mice): N | Behavioral Observation: Sedation (Swiss albino mice): N | Behavioral Observation: Stereotypy (Swiss albino mice): N | Behavioral Observation: Tremors (Swiss albino mice): N | No. of Death (Swiss albino mice): Nil | Toxicity (Swiss albino mice): free of any toxicity and Nil | lethal dose (Swiss albino mice): above 2000 mg/kg body weight | mortality (Swiss albino mice): No mortality | GI50 [7]: > 100 µM

CCOP(=O)(OCC)C(N/N=C1\C(=O)Nc2ccccc21)c1ccc([N+](=O)[O-])cc1 (centres unmarked) [4m, (Z)-Diethyl (4-nitrophenyl)(2-(2-oxoindolin-3-ylidene)hydrazinyl)methylphosphonate]
melting point: 172 to 174 °C | GI50 ([1]; Homo sapiens, HepG2): 13.3 µM | anticancer activity compared with standard drug adriamycin, HT-29 [2]: equipotent | GI50 ([2]; Homo sapiens): < 0.1 µM | GI50 ([3]; Homo sapiens): 44.2 µM | GI50 ([4]; Homo sapiens): < 0.1 µM | GI50 ([5]; Homo sapiens, MCF7, SRB assay): 77.2 µM | GI50 (in vitro): > 250 µM | GI50 ([7]; Homo sapiens): 56.6 µM

CCOP(=O)(OCC)C(N/N=C1\C(=O)Nc2ccccc21)c1scnc1C (centres unmarked) [4n, (Z)-Diethyl (4-methylthiazole-5-yl)(2-(2-oxoindolin-3-ylidene)hydrazinyl)methylphosphonate]
melting point: 188 to 190 °C | GI50 ([1]; Homo sapiens, HepG2): 24.9 µM | anticancer activity compared with standard drug adriamycin, HT-29 [2]: equipotent | GI50 ([2]; Homo sapiens): < 0.1 µM | GI50 ([3]; Homo sapiens): 33.1 µM | GI50 ([4]; Homo sapiens): < 0.1 µM | GI50 ([5]; Homo sapiens, MCF7, SRB assay): 58.2 µM | GI50 (in vitro): > 250 µM | GI50 ([7]; Homo sapiens): 67.8 µM

CCOP(=O)(OCC)C(NN=C1C(=O)Nc2ccccc21)c1ccc(OC)cc1 (centres unmarked) [4d, (Z)-Diethyl(4-methoxyphenyl)(2-(2-oxoindolin-3-ylidene)hydrazinyl)methylphosphonate]
GI50 [1]: 45.3 µM | anticancer activity compared with standard drug adriamycin, HT-29 [2]: equipotent | GI50 [2]: < 0.1 µM | GI50 [3]: 65.7 µM | GI50 [4]: < 0.1 µM | GI50 ([5]; SRB assay): > 100 µM | GI50 [6]: > 250 µM | GI50 [7]: > 100 µM

CCOP(=O)(OCC)C(NN=C1C(=O)Nc2ccccc21)c1ccc(F)cc1 (centres unmarked) [4c, Diethyl(4-flurophenyl)(2-(2-oxoindolin-3-ylidene)hydrazinyl)methylphosphonate]
GI50 [1]: 32 µM | GI50 [2]: 20.8 µM | GI50 [3]: 57.5 µM | GI50 [4]: < 0.1 µM | GI50 ([5]; SRB assay): > 100 µM | GI50 [6]: > 250 µM | GI50 [7]: > 100 µM

COc1cccc2c1C(=O)c1c(O)c3c(c(O)c1C2=O)C[C@@](O)(C(=O)CO)C[C@@H]3O[C@H]1C[C@H](N)[C@H](O)[C@H](C)O1 [ADR, Adriamycin, reference compound]
GI50 ([1]; Homo sapiens, HepG2): < 0.1 µM | GI50 ([2]; Homo sapiens): < 0.1 µM | GI50 ([3]; Homo sapiens): < 0.1 µM | GI50 ([4]; Homo sapiens): < 0.1 µM | GI50 ([5]; Homo sapiens, MCF7, SRB assay): < 0.1 µM | GI50 at 48 h (in vitro; NIH/3T3 normal murine embryonic fibroblast cells): 82.2 µM | GI50 ([7]; Homo sapiens): < 0.1 µM

CCOP(=O)(OCC)C(NN=C1C(=O)Nc2ccccc21)c1ccco1 (centres unmarked) [4j, (Z)-Diethylfuran-2-yl(2-(2-oxoindolin-3-ylidene)hydrazinyl)methylphosphonate]
GI50 [1]: 44.6 µM | anticancer activity compared with standard drug adriamycin, HT-29 [2]: equipotent | GI50 [2]: < 0.1 µM | GI50 [3]: 93.9 µM | GI50 [4]: < 0.1 µM | GI50 ([5]; SRB assay): > 100 µM | GI50 [6]: > 250 µM | GI50 [7]: > 100 µM

CCOP(=O)(OCC)C(NN=C1C(=O)Nc2ccccc21)c1ccccc1 (centres unmarked) [4a, Diethyl(phenyl)(2-(2-oxoindolin-3-ylidene)hydrazinyl)methylphosphonate]
GI50 [1]: 55.2 µM | GI50 [2]: 56.9 µM | GI50 [3]: 56.9 µM | GI50 [4]: < 0.1 µM | GI50 ([5]; SRB assay): > 100 µM | GI50 [6]: > 250 µM | GI50 [7]: > 100 µM

CCOP(=O)(OCC)C(NN=C1C(=O)Nc2ccccc21)c1ccc(Cl)cc1 (centres unmarked) [4b, Diethyl(4-chlorophenyl)(2-(2-oxoindolin-3-ylidene)hydrazinyl)methylphosphonate]
GI50 [1]: 18.6 µM | GI50 [2]: 46.9 µM | GI50 [3]: 41.4 µM | GI50 [4]: < 0.1 µM | GI50 ([5]; SRB assay): 67.2 µM | GI50 [6]: > 250 µM | Additional Observation: Convulsions (Swiss albino mice): N | Additional Observation: Diarrhea (Swiss albino mice): N | Additional Observation: Eyes Lacrimation (Swiss albino mice): N | Additional Observation: Pilo Erection (Swiss albino mice): Y | Additional Observation: Respiration (Swiss albino mice): N | Additional Observation: Salivation (Swiss albino mice): N | Additional Observation: Skin and Fur (Swiss albino mice): N | Additional Observation: Straub Tail (Swiss albino mice): N | Behavioral Observation: Analgesia (Swiss albino mice): N | Behavioral Observation: Arching & Rolling (Swiss albino mice): N | Behavioral Observation: Catalepsy (Swiss albino mice): N | Behavioral Observation: Hypnosis (Swiss albino mice): N | Behavioral Observation: Motor Activity (Swiss albino mice): N | Behavioral Observation: Muscle Spasm (Swiss albino mice): N | Behavioral Observation: Sedation (Swiss albino mice): N | Behavioral Observation: Stereotypy (Swiss albino mice): N | Behavioral Observation: Tremors (Swiss albino mice): N | No. of Death (Swiss albino mice): Nil | Toxicity (Swiss albino mice): free of any toxicity and Nil | lethal dose (Swiss albino mice): above 2000 mg/kg body weight | mortality (Swiss albino mice): No mortality | GI50 [7]: > 100 µM

CCOP(=O)(OCC)C(NN=C1C(=O)Nc2ccccc21)c1ccc(OC)c(OC)c1 (centres unmarked) [4e, Diethyl(3,4-dimethoxyphenyl)(2-(2-oxoindolin-3-ylidene)hydrazinyl)methylphosphonate]
GI50 [1]: 12.2 µM | anticancer activity compared with standard drug adriamycin, HT-29 [2]: equipotent | GI50 [2]: < 0.1 µM | GI50 [3]: 55.2 µM | GI50 [4]: < 0.1 µM | GI50 ([5]; SRB assay): > 100 µM | GI50 [6]: > 250 µM | GI50 [7]: > 100 µM

— PMC6222476 (Molecules : A Journal of Synthetic Chemistry and Natural …, 2018)
